Where two headings read alike, the source gives them in different places.
Columns and labels:
[1] = target: T1, TOPOIIα (Homo sapiens, UniProt P11388); test: kDNA decatenation assay, TOPOIIα; type: biochemical; details: for TOPOIIα inhibition, in words: decatenation assay;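 for all read-outs here: kDNA incubated with one unit of TOPOIIα at 37 °C for 30 min, decatenated product resolved on 1% agarose gel, inhibition from relative band intensity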
T1 construct: purchased Inspiralis

[2] = target: T2, TOPOIIβ (Homo sapiens, UniProt Q02880); test: kDNA decatenation assay, TOPOIIβ; type: biochemical; details: for TOPOIIβ inhibition, in words: decatenation assay;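 for all read-outs here: kinetoplast DNA incubated with one unit of TOPOIIβ at 37 °C for 30 min, decatenated product resolved on 1% agarose gel, inhibition scored from relative band intensity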
T2 construct: purchased Inspiralis
T2 sequence (Q02880 whole entry): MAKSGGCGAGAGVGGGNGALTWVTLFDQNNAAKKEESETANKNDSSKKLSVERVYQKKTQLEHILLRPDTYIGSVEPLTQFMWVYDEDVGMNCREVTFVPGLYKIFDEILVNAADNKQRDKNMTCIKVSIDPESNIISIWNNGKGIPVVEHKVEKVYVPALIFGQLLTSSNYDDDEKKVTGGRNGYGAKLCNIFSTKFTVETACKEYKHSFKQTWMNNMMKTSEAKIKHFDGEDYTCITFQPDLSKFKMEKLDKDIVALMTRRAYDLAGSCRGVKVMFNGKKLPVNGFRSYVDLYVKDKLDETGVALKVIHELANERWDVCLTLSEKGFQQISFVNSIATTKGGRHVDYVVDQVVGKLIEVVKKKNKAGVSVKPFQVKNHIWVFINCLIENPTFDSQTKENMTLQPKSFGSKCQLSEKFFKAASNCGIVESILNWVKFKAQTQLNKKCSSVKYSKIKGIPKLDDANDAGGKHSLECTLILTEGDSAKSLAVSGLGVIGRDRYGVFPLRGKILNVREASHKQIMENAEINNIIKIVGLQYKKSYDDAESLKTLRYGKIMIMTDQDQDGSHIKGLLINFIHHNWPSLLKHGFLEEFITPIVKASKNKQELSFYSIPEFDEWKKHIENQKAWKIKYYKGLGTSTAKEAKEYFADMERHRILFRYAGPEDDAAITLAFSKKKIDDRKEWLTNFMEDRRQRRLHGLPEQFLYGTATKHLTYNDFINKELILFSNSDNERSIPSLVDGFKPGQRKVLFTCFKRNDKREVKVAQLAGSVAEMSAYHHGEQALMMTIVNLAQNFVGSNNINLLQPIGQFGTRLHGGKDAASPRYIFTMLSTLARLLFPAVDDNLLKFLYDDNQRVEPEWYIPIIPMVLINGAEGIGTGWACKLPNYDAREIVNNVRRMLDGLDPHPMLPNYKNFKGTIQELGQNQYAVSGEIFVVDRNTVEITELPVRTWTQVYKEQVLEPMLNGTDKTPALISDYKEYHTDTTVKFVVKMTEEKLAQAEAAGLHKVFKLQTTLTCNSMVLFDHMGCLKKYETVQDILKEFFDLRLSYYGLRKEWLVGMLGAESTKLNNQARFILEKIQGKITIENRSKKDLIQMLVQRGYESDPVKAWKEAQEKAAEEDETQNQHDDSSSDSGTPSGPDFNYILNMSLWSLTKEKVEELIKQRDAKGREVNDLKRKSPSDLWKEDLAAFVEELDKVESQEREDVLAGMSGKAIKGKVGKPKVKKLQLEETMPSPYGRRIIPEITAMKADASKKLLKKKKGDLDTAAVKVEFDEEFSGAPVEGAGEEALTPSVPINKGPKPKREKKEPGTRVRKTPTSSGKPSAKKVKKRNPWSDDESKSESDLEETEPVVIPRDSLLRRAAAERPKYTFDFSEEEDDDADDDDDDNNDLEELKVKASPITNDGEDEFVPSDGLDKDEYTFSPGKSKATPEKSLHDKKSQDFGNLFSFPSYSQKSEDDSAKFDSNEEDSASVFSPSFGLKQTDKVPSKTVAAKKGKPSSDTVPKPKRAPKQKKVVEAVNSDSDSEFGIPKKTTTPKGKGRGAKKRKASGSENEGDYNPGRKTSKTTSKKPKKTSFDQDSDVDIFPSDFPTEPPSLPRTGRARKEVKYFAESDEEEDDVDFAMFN

[3] = system: Doxorubicin treated human iPSC-derived cardiomyocytes; test: iPSC-CM protection by myricetin analogs (Table 1); type: cell-based; details: for EC50 / Emax: Homo sapiens; for Emax: read-out: iPSC-CM protection Max Effect (%); for cardioprotection, in words: Table 1
[4] = system: cardiomyocytes; test: cytotoxicity of myricetin analogs to cardiomyocytes (Table 1, Toxicity); details: for Toxicity: * = cytotoxicity at 100 μM; for toxic effects at concentrations less than 100 μM / cytotoxicity, in words: Table 1; for cytotoxicity, in words: at 100 μM where stated
[5] = system: A549 cells; test: doxorubicin-mediated death of lung cancer cells, CellTiter-Glo (Example 22); type: cell-based; details: co-treated with increasing concentrations of doxorubicin, 72 hours
Procedure: A549 cells (lung cancer) were cultured for 1 day before performing experiments. […] XLFit was used for curve fitting.

[6] = system: cardiomyocytes differentiated from induced pluripotent stem cells; test: acute toxicity on electrophysiology, MEA beat period and field potential duration (Example 23); type: cell-based; details: at least 20 minutes; for difference in beat period or field potential duration vs control samples: lower drug concentration; for acute drug toxicity on beating: higher concentrations
Procedure: Samples were either mock-treated with 0.1% DMSO, or treated with increasing concentrations of the indicated drug for at least 20 minutes. Cardiomyocytes were treated with the hERG potassium channel blocker E4031 as a control. Following treatment, the beat period and field potential duration (FPD) were measured in each sample using the MEA.

[7] = system: MDA-MB-231 cells; details: co-treated with increasing concentrations of doxorubicin, 72 hours
[8] = system: cardiomyocytes differentiated from induced pluripotent stem cells; test: long term toxicity on electrophysiology, active electrodes (Example 24); type: cell-based; details: for decrease in the number of active electrodes relative to the mock-treated sample: various concentrations, at least 5 days
Procedure: Samples were either mock-treated with 0.1% DMSO, or treated with various concentrations of the indicated drug. Following treatment, the percentage of active electrodes in each sample was measured for at least 5 days. Percentage of active electrodes was quantified and graphed in a time course.

[9] = target: topoisomerase IIβ (Homo sapiens, UniProt Q02880); details: 100 μM, 24 hours, iPSC-CMs
topoisomerase IIβ, sequence (Q02880 whole entry): as above

[10] = system: Cardiomyocytes (human iPSC-derived); test: doxorubicin-induced apoptosis, CellEvent dye, 3 days (Example 4); type: cell-based; details: Cardiomyocyte, 72 h, co-treated with 1 μM of doxorubicin, read-out: IC50 for protective effects against apoptosis
Procedure: Cardiomyocytes were prepared as described above. […] Following treatment, the samples were incubated with a CellEvent dye to indicate apoptosis-positive cells, and a second dye to identify cell nuclei.

[11] = system: Human iPSC-derived cardiomyocytes; test: cells; type: cell-based; details: Cardiomyocyte, 0.5 μM of Doxorubicin, 72 hours, read-out: EC50 for rescue from DOX-induced cell death
Procedure: To measure the rescue rates from the DOX-induced cell death in cardiomyocytes, the protective effect of myricetin was directly compared with that of dexraxozane (DEX; standard of care). Human iPSC-derived cardiomyocytes were treated with 0.5 μM of Doxorubicin and increasing concentrations of myricetin (MYR, circle) or dexraxozane (DEX, square). […] Cells were imaged using INCell Analyzer2200 (GE). […] (n=3).
Next, the ability of MYR to confer cardioprotection was directly compared with that of DHM as these two compounds display distinctive property in their structures and TOPOI inhibition activity. […] Human iPSC-derived cardiomyocytes were treated with 0.5 μM of Doxorubicin and increasing concentrations of myricetin (MYR, circle) or dihydromyricetin (DHM, triangle).

[12] = system: Human iPSC-derived cardiomyocytes; test: DOX-induced DNA double strand break, γH2AX immunostaining; type: cell-based; details: Homo sapiens, Cardiomyocyte, read-out: IC50, concentration at which DOX-induced double strand break was reduced to 50%; 0.5 μM of doxorubicin, 48 hours
[13] = iPSC-CM, read-out: iPSC-CM protection EC50
[14] = even at extreme concentrations (>200 μM)

T1 sequence (P11388 whole entry): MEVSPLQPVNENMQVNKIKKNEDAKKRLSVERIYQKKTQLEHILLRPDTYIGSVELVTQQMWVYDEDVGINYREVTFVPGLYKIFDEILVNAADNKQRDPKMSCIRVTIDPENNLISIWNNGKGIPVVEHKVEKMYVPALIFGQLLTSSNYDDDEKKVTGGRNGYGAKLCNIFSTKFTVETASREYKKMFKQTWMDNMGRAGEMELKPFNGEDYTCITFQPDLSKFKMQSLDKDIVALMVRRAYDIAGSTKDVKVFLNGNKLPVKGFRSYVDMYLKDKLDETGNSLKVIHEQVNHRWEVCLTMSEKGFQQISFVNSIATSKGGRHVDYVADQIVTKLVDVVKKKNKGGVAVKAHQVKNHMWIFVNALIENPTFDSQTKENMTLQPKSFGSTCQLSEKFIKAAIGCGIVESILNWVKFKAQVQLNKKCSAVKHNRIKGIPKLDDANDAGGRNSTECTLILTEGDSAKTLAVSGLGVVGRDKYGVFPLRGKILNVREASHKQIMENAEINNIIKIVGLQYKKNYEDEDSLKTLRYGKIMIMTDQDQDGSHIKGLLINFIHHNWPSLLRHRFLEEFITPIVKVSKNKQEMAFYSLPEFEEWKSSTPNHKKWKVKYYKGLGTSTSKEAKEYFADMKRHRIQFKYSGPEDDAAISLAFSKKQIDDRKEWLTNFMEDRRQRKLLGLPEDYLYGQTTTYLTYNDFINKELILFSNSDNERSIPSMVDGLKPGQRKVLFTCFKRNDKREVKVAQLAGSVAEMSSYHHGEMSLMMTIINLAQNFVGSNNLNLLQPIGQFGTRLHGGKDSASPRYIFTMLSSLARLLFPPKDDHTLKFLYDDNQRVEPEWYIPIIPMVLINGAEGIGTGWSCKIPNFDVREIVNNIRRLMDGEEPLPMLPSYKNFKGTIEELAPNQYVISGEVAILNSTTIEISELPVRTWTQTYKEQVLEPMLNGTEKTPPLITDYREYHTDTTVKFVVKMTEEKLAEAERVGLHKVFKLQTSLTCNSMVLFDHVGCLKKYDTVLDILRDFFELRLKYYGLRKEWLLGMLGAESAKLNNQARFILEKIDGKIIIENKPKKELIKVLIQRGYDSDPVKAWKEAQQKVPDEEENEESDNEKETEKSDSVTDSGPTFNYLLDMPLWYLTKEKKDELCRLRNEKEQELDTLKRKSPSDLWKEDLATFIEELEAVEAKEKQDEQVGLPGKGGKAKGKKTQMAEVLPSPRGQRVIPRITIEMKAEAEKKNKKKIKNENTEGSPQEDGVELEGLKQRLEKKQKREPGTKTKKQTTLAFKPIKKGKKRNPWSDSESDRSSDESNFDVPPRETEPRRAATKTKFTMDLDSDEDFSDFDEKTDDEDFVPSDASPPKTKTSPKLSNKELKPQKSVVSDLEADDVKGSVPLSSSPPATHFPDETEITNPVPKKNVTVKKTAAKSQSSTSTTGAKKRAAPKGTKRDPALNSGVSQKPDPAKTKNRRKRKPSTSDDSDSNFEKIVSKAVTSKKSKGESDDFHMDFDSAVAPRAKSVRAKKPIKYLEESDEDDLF

## O=c1c(O)c(-c2cc(O)c(O)c(O)c2)oc2cc(O)ccc12 [Compound 2, 3,7,3′,4′,5′-pentahydroxyflavone]
[1]
  TOPOIIα inhibition, in words: high level of inhibition
[2]
  TOPOIIβ inhibition, in words: high level of inhibition
[3]; Cardiomyocyte, approximate, read-out: EC50 for cardioprotection
  EC50: 10 to 20 µM
[3]; [13]
  EC50: 12.6 µM
[3]; iPSC-CM
  Emax: 64%
[4]
  Toxicity: −

## O=c1cc(-c2cc(O)c(O)c(O)c2)oc2cc(O)cc(O)c12 [Compound 3, 5,7,3′,4′,5′-pentahydroxyflavone]
[1]
  TOPOIIα inhibition, in words: displayed cardioprotection and TOPOII inhibition
[2]
  TOPOIIβ inhibition, in words: displayed cardioprotection and TOPOII inhibition
[3]; [13]
  EC50: 17.2 µM
[3]; iPSC-CM
  Emax: 56%
[3]
  cardioprotection, in words: displayed cardioprotection
[4]
  toxic effects at concentrations less than 100 μM: some toxic effects
  cytotoxicity, in words: low level of cytotoxicity

## O=c1c(O)c(-c2ccc(O)c(O)c2)oc2cc(O)cc(O)c12 [Compound 4, 3,5,7,3′,4′-pentahydroxyflavone]
[1]
  TOPOIIα inhibition, in words: exhibited TOPOII inhibition
[2]
  TOPOIIβ inhibition, in words: exhibited TOPOII inhibition
[3]; [13]
  EC50: 20.5 µM
[3]; iPSC-CM
  Emax: 58%
[3]
  cardioprotection, in words: conferred cardioprotection
[4]
  cytotoxicity, in words: high level of general cytoxicity

## O=c1cc(-c2cc(O)c(O)c(O)c2)oc2cc(O)ccc12 [Compound 6, 7,3′4′,5′-tetrahydroxyflavone]
[1]
  TOPIIα Inhibition: −
  TOPOIIα inhibition, in words: did not inhibit TOPOII enzymes
[2]
  TOPIIβ Inhibition: −
  TOPOIIβ inhibition, in words: did not inhibit TOPOII enzymes
[3]; [13]
  EC50: 17.1 µM
[3]; iPSC-CM
  Emax: 71%
[3]
  cardioprotection, in words: displayed cardioprotection
[4]
  Toxicity: −

## O=c1ccoc2cc(O)ccc12 [Compound 7-hydroxy-4-chromone, 7-hydroxy-4-chromone]
[1]
  TOPOIIα inhibition, in words: Nor did either compound confer TOPOIIβ or a inhibition
[2]
  TOPOIIβ inhibition, in words: Nor did either compound confer TOPOIIβ or a inhibition
[3]
  cardioprotection, in words: no positive effect
[4]
  cytotoxicity, in words: high level of cytotoxicity

## O=c1cc(-c2cc(O)c(O)c(O)c2)oc2ccccc12 [Compound 8, 3′,4′,5′-trihydroxyflavone]
[1]
  TOPIIα Inhibition: −
[2]
  TOPIIβ Inhibition: −
[3]
  Rescue: +
[3]; [13]
  EC50: 43 µM
[3]; iPSC-CM
  Emax: 64%
[4]
  Toxicity: −

## O=c1c(O)c(-c2ccc(O)cc2)oc2cc(O)ccc12 [Compound 10, 3,7,4′-trihydroxyflavone]
[1]
  TOPIIα Inhibition: −
[2]
  TOPIIβ Inhibition: −
[3]
  Rescue: +
[3]; [13]
  EC50: 3.26 µM
[3]; iPSC-CM
  Emax: 27%
[4]
  toxic effects at concentrations less than 100 μM: exhibited toxic effects

## CC(=O)N[C@@H](CS)C(=O)O [N-acetyl cysteine]
[5]
  difference in the percentage of cell death vs doxorubicin without protective agent: no significant difference
[6]
  difference in beat period or field potential duration vs control samples: no appreciable difference
[7]
  difference in the percentage of cell death vs doxorubicin without protective agent: no significant difference

## Nc1c(Br)cc(Br)cc1CN[C@H]1CC[C@H](O)CC1 [ambroxol]
[5]
  difference in the percentage of cell death vs doxorubicin without protective agent: no significant difference
[6]
  difference in beat period or field potential duration vs control samples: no appreciable difference
[8]
  decrease in the number of active electrodes relative to the mock-treated sample: no observable decrease
[7]
  difference in the percentage of cell death vs doxorubicin without protective agent: no significant difference

## C[C@H](CCC(=O)O)[C@H]1CC[C@H]2[C@@H]3[C@H](O)C[C@@H]4C[C@H](O)CC[C@]4(C)[C@H]3CC[C@]12C [chenodeoxycholic acid]
[6]
  acute drug toxicity on beating: beating cessation
  difference in beat period or field potential duration vs control samples: no appreciable difference

## CC(=O)N(O)CCCCCNC(=O)CCC(=O)N(O)CCCCCNC(=O)CCC(=O)N(O)CCCCCN [deferoxamine]
[6]
  difference in beat period or field potential duration vs control samples: no appreciable difference

## C[C@@H](CN1CC(=O)NC(=O)C1)N1CC(=O)NC(=O)C1 [dexrazoxane]
[5]
  difference in the percentage of cell death vs doxorubicin without protective agent: no significant difference
[6]
  difference in beat period or field potential duration vs control samples: no appreciable difference
[8]; 167 μM dexrazoxane, about 2 days post-treatment
  reduction in the number of active electrodes: ~25%
[8]; 167 μM dexrazoxane, about 3 days post-treatment
  reduction in the number of active electrodes: ~50%
[8]; 500 μM dexrazoxane, about 2 days post-treatment
  reduction in the number of active electrodes: ~50%
[8]; 500 μM dexrazoxane, about 3 days post-treatment
  reduction in the number of active electrodes: ~100%
[9]
  topoisomerase IIβ protein levels: marked disappearance of TOPOIIβ
[7]
  difference in the percentage of cell death vs doxorubicin without protective agent: no significant difference

## O=C1c2c(O)cc(O)cc2O[C@H](c2cc(O)c(O)c(O)c2)[C@H]1O [dihydromyricetin]
[10]
  IC50: 40.5 µM
[11]
  EC50: 14 µM
[12]
  IC50: 11.3 µM
[1]; [14]
  TOPOIIα enzymatic activity inhibition: did not inhibit
[2]; [14]
  TOPOIIβ enzymatic activity inhibition: did not inhibit

## Nc1ccc(O)c(C(=O)O)c1 [mesalamine]
[5]
  difference in the percentage of cell death vs doxorubicin without protective agent: no significant difference
[8]
  decrease in the number of active electrodes relative to the mock-treated sample: no observable decrease
[7]
  difference in the percentage of cell death vs doxorubicin without protective agent: no significant difference

## C[C@@H]1O[C@@H](Oc2c(-c3cc(O)c(O)c(O)c3)oc3cc(O)cc(O)c3c2=O)[C@H](O)[C@H](O)[C@H]1O [myricitrin]
[10]
  IC50: 38.5 µM

## O=C1C[C@@H](c2ccc(O)cc2)Oc2cc(O)cc(O)c21 [naringenin]
[6]
  acute drug toxicity on beating: beating cessation
  difference in beat period or field potential duration vs control samples: no appreciable difference

Reference: US11786503B2, “Pharmaceutical compositions and methods for countering chemotherapy induced cardiotoxicity” (Auransa Inc., priority 2016, dated 2023)
